Results from patent US8859625B2, “Methods to prepare penta-1,4-dien-3-ones and substituted cyclohexanones and derivatives with antitumoral and antiparasitic properties, the compounds and their uses” (Universidade Bandeirante de Sao Paulo-Academia, Paulista …, priority 2006, dated 2014).
Entries after “also recorded” stand apart in the source; their conditions may differ. Marks after values point to notes of the source that are not given here.

Columns and labels:
B16F10 melanoma = assay: Histological analysis of mice bearing B16F10 dorsal melanoma; type: in vivo, C57BL/6J mice; conditions: diluted in Miglyol 810, 1.15 μg/kg intraperitoneal
Excerpt: Animals are sacrificed by cervical displacement and the organ fragments were collected from the areas next to the tumoral region, stored in vials containing 10% formaldehyde, and fixed to be submitted to the routine histological processing (PARDI, P C; SIMÕES, M J, BINIVIGNAT, G. O—Ultrastructural study of the remodeling of the stroma of persistent-estrous rats—Rev. Chil. Cienc. Méd. Biol 3(2):61-65, 1993).
Melanoma B16F10 cell line are implanted at 5×10^4 cells per animal, the ideal dose to obtain the expected results and already proclaimed for this chosen type of animal.
All animals are treated after Day 14 of tumor implant and, as a result, the sequence of necropsis initiates at Day 15.
To visualize the results of HB-1 administration, animals are allocated into the following groups:
2—HB-1 group, treated with HB-1 diluted in Miglyol 810®, kept under ad libitum feed and water.
In both cases, the standard administered dose is of 1.15 μg/kg, via intraperitoneal as the elicited administration route.
Animals are sacrificed by cervical displacement and necropsis is performed with the material immediately collected and transferred to vials containing 10% formaldehyde and, after a 1 to 2 day period, submitted to a routine histological technique Hystology Technique Manual (Manual De Técnicas Para Histologia—Normal E Patológica: Castro De Tolosa, Rodrigues, Behmer E Freitas Neto, Editora Manole 2003).
After the fixation procedure to the thin plate, the hematoxylin/eosin staining method—Hystology Technique Manual (Manual (Manual De Técnicas Para Histologia—Normal E Patológica: Castro De Tolosa, Rodrigues, Behmer E Freitas Neto, Editora Manole 2003). is applied as it presents good results for tissue and cell morphologic evaluation, mainly to the components in each block.
After staining, the thin plates are mounted, then analysed by a ZEISS microscopy with a AXIOCAM-MRC3 trade mark digital camera, and the resulting pictures processed by a AXIOVISON REL 4.2 (Carl Zeiss Inc.) software, registered by a computer.

[1] = tested on: promastigote form of Leishmania (L) amazonensis (LV79 isolate); assay: Promastigote viability by the MTT method in RPMI medium; type: cell-based
Experimental: Viability and/or cellular proliferative assays of promastigote and amastigote forms are also performed by the MTT (diphenyl tetrazolium 3-[4,5-dimethylthiazol-2il]2,5-bromide) method as described by Moreira, et al. (Moreira, M. E. C., Del Portillo, H. A., Milder, R. V., Balanco, J. M. F. and Barcinski, M. A. Heat shock induction of apoptosis in promastigotes of the unicellular organism Leishmania (Leishmania) amazonensis, J. Cell Physiol 167, 305-313, 1996), modified.
After incubation of parasitic forms with the compounds, as described above, for predetermined periods of time for each experiment (24, 48, 72 hours, etc.), an 1.0 mL aliquot of cellular suspension is collected from each culture tube or vial and transferred to microcentrifuge tubes, where they are centrifuged at 14.000 rpm for 3 minutes, the culture medium is aspirated and discharged. To the sedimented cells are add 200 μL of PBS. After that, the volume in PBS of the cellular suspensions is splitted into two wells (duplicates of 100 μL each) of a 96 well culture plate. To each duplicate, […] of MTT (5 mg/mL stock solution, […]) are added. After 1 h or 1 h 30 min, at a temperature of 22° C. (promastigotes) or 34° C. (amastigotes), 100 μL of 10% SDS are added to each well to interrupt the reaction, to lyse the cells and to dissolve the formazan crystals, resulting in an homogeneous blue solution appropriate to the absorbance measure by a spectrophotometer for culture microplates (3550 BIORAD model, Richmond, Calif.), at 595 nm as test wavelength and 690 nm as the reference wavelength.
The optical density (O.D.) values correspond to MTT enzymatic reduction by the metabolic active cells. Consequently, the O.D. is directly proportional to the number of viable cells of the cellular suspension. The progressive increase of O.D. indicates cellular proliferation. Results are expressed as arithmetic average of the optical density duplicates.
Blanks of reaction are obtained by incubating of the specific medium employed in each assay, in addition to MTT, and different HB-1 concentrations. The brownish-yellow color of HB-1 exerts certain interference on the colorimetric assay at different magnitudes, according to the medium and to HB-1 concentration. In general the O.D. blank ranged among assays from 0.002 to 0.020.
In this assay, viability of the promastigote form Leishmania is assessed by the MTT method, when incubated in RPMI medium, in the presence of HB-1 or of its respective controls in DMSO. It is also possible to verify if the effect of HB-1 could be detected in the stationary phase of the growth curve.
For the incubations, promastigotes of the LV79 isolate, in 1st passage and in Day 7 of culture, are employed, from a 1.0×10^6/mL as initial inoculum. The final reaction volume is of 3.0 mL. The results of the viability determination for the promastigote forms of Leishmania (L) amazonensis treated with HB-1 in RPMI medium are shown in the next Table and in FIG. 35.

## COc1cc(C=CC(=O)C=Cc2ccc(O)c(OC)c2)ccc1O [HB-1, 1,5-Bis-(4-hydroxy-3-methoxy-phenyl)-penta-1,4-dien-3-one]
B16F10 melanoma; 14 day treatment
  leukocytic infiltrate in dorsal tumor: presence of a leukocytic infiltrate in the peri- and intratumoral portions
B16F10 melanoma; compared to control group
  lung parenchyma alterations: No alterations of thickness or bronchium epithelium rupture
  metastatic lesions: no metastatic lesions were found; also recorded: presence of metastatic masses or nodules was not observed
[1]; HB-1 3.12 μg/mL, 24 hours
  Optical Density 595/690 nm (average value from duplicates): 0.062
[1]; HB-1 3.12 μg/mL, 48 hours
  Optical Density 595/690 nm (average value from duplicates): 0.085
[1]; HB-1 3.12 μg/mL, 72 hours
  Optical Density 595/690 nm (average value from duplicates): 0.104*
[1]; HB-1 3.12 μg/mL, 144 hours
  Optical Density 595/690 nm (average value from duplicates): 0.021
[1]; HB-1 6.25 μg/mL
  effect in words: leishmaniostatic effect
[1]; HB-1 6.25 μg/mL, 24 hours
  Optical Density 595/690 nm (average value from duplicates): 0.039
[1]; HB-1 6.25 μg/mL, 48 hours
  Optical Density 595/690 nm (average value from duplicates): 0.033
[1]; HB-1 6.25 μg/mL, 72 hours
  Optical Density 595/690 nm (average value from duplicates): 0.044
[1]; HB-1 6.25 μg/mL, 144 hours
  Optical Density 595/690 nm (average value from duplicates): 0.031
[1]; HB-1 12.5 μg/mL, 24 hours
  Optical Density 595/690 nm (average value from duplicates): 0.010
[1]; HB-1 12.5 μg/mL, 48 hours
  Optical Density 595/690 nm (average value from duplicates): 0.004
[1]; HB-1 12.5 μg/mL, 72 hours
  Optical Density 595/690 nm (average value from duplicates): 0.003
[1]; HB-1 12.5 μg/mL, 144 hours
  Optical Density 595/690 nm (average value from duplicates): 0.005
[1]; HB-1 25 μg/mL, 24 hours
  Optical Density 595/690 nm (average value from duplicates): 0.004
[1]; HB-1 25 μg/mL, 48 hours
  Optical Density 595/690 nm (average value from duplicates): 0.005
[1]; HB-1 25 μg/mL, 72 hours
  Optical Density 595/690 nm (average value from duplicates): 0.002
[1]; HB-1 25 μg/mL, 144 hours
  Optical Density 595/690 nm (average value from duplicates): 0.005
[1]; HB-1 50 μg/mL, 24 hours
  Optical Density 595/690 nm (average value from duplicates): 0.008
[1]; HB-1 50 μg/mL, 48 hours
  Optical Density 595/690 nm (average value from duplicates): 0.004
[1]; HB-1 50 μg/mL, 72 hours
  Optical Density 595/690 nm (average value from duplicates): 0.005
[1]; HB-1 50 μg/mL, 144 hours
  Optical Density 595/690 nm (average value from duplicates): 0.005
[1]; HB-1 100 μg/mL, 24 hours
  Optical Density 595/690 nm (average value from duplicates): 0.016
[1]; HB-1 100 μg/mL, 48 hours
  Optical Density 595/690 nm (average value from duplicates): 0.012
[1]; HB-1 100 μg/mL, 72 hours
  Optical Density 595/690 nm (average value from duplicates): 0.011
[1]; HB-1 100 μg/mL, 144 hours
  Optical Density 595/690 nm (average value from duplicates): 0.011
[1]; HB-1 above 12.5 μg/mL
  effect in words: clear leishmanicidal effect
[1]; HB-1 between 6.25 μg/mL and 100 μg/mL, since first 24 hours
  cell viability in words: irreversibly compromise cell viability
